Data on ten compounds can be found in patent US10842149B2, “Water conditioning adjuvant compositions and related methods for reducing herbicide volatility” (BOARD OF TRUSTEES OF MICHIGAN STATE UNIVERSITY, priority 2017, dated 2020).

Read-outs that look alike come from different tables or passages of the source.

Data set [1] concerns VELVETLEAF
Kind of data set: Effect of DTPA on glyphosate efficacy on velvetleaf (% control). The note with it: Table 3, combined experiments 1, 2 and 3, 10 gpa, 25 psi, glyphosate 0.25 lb a.e./A. Format: in vivo.

Data set [2] concerns GIANT FOXTAIL. Kind of data set: Effect of DTPA, EDTA and other adjuvants on glyphosate efficacy on giant foxtail (% control). The note with it: combined experiments 1 and 2, 10 gpa, 25 psi. It is filed as in vivo.
For data set [3] the following is noted: approximate values given by way of illustration; cited from earlier work.
The test system of data set [4] is TOMATO. The conditions noted are these: for % INJURY 7 DAT: rated 7 DAT; for % INJURY 10 DAT: rated 10 DAT; for % INJURY 14 DAT: rated 14 DAT; for % INJURY 21 DAT: rated 21 DAT; for % INJURY 28 DAT: rated 28 DAT. The source says:
Reduction in herbicide volatility can be characterized using the procedure generally set forth in Penner U.S. Publication No. 2016/0255832, which includes a bioassay system for evaluating herbicide volatilization from plant substrates (e.g., using wheat and soybean plants or equivalent in a plant growth chamber with a selected adjuvant/herbicide composition including a volatile growth regulator herbicide and an aminopolycarboxylate salt). A wide range of soil, plant, environmental, and herbicide factors (e.g., vapor pressure and water solubility of herbicide, surface characteristics) can affect herbicide volatility from soils and plants. Comparison of the volatilization would be most readily visualized by appropriate bioassay systems. In the bioassay system, a herbicide composition including a volatile growth regulator herbicide (e.g., 2,4-D, dicamba, or otherwise) and optionally one or more adjuvants (e.g., including an aminopolycarboxylate salt or not) is applied foliarly to a target plant generally resistant to the herbicide (e.g., wheat plants, such as amber red wheat) or is applied to a target soil area without a target plant. Twenty minutes later, soybean plants (e.g., PIONEER 92M92 soybean plants) or other plants sensitive to the volatile growth regulator herbicide are placed in the middle of the sprayed target plants and/or soil.
The following examples illustrate the disclosed compositions and methods, but are not intended to limit the scope of any claims thereto. […] In the examples of Tables 1-3, target weeds were initially treated with glyphosate and any additional adjuvants as indicated in the tables. […] In the examples of Table 4, target soil was initially treated with dicamba and any additional adjuvants as indicated in the table, and then tomato plants were inserted into a ring of the treated soil for 24 hours. After 24 hours of sitting in the treated soil (i.e., during which time any volatilized herbicide from the soil could contact the tomato plants), the tomato plants were removed from the treated soil and grown on a laboratory bench.

Data set [5] is described as follows: pH of the treatment solutions (Table 3). It is filed as physicochemical. The note with it: pH of treatment solution, DTPA treatments adjusted with KOH (5N).
The mark [6] stands for this setting: Table 1, glyphosate 0.20 (Run 1) / 0.25 (Run 2) lb a.e./A, pH adjusted to 5.5 with KOH.
Setting [7] is: Table 1, glyphosate 0.20 / 0.25 lb a.e./A.
Where [8] appears, read: Table 2, glyphosate 0.275 (exp 1) / 0.20 (exp 2) lb a.e./A.
Setting [9] is: Table 2, glyphosate 0.275 / 0.20 lb a.e./A.
Setting [10] is: tomato in treated soil ring: duration, dicamba 0.50 lb a.e./A.
Where [11] appears, read: tomato inserted 1 DAT (in 1st DAT out 2nd DAT), 24 hours.
The mark [12] stands for this setting: tomato inserted 2 DAT (in 2nd DAT out 3rd DAT), 24 hours.
Where [13] appears, read: tomato inserted 3 DAT (in 3rd DAT out 4th DAT), 24 hours.
[14] abbreviates: tomato inserted 4 DAT (in 4th DAT out 5th DAT), 24 hours.
Setting [15] is: tomato inserted 7 DAT (in 7th DAT out 8th DAT), 24 hours.

As for `O=C(O)CN(CCN(CC(=O)O)CC(=O)O)CCN(CC(=O)O)CC(=O)O` [1.0% w/v DTPA, Diethylenetriaminepentaacetic acid], the “% CONTROL 7 DAT” value in data set [1] is on record as 0%; in data set [2] (setting [6]), 1%; in data set [2] (setting [8]) it was 0%. In addition, the results for the “% CONTROL 10 DAT” value in data set [1], in data set [2] (setting [7]) and in data set [2] (setting [9]) were 0%, 5% and 0%, respectively. For the same compound, the results for the “% CONTROL 14 DAT” value in data set [1], in data set [2] (setting [7]) and in data set [2] (setting [9]) were 5%, 6% and 0%, respectively. Further, the “% CONTROL 21 DAT” value in data set [1] was found to be 0%; in data set [2] (setting [7]) it was 1%; in data set [2] (setting [9]) it was 3%.

In the case of `O=C(O)CN(CCN(CC(=O)O)CC(=O)O)CC(=O)O` [1.0% w/v EDTA, Ethylenediaminetetraacetic acid], the “% CONTROL 7 DAT” value in data set [2] (setting [8]) was found to be 0%. Further, in data set [2] (setting [9]), the “% CONTROL 10 DAT” value worked out at 0%, the “% CONTROL 14 DAT” value is 0% and the “% CONTROL 21 DAT” value is given as 3%.

Regarding `O=C(O)CN(CCN(CC(=O)O)CC(=O)O)CC(=O)O` [2 0% w/v EDTA, Ethylenediaminetetraacetic acid], in data set [2] (setting [8]), the “% CONTROL 7 DAT” value came out at 0%. In addition, in data set [2] (setting [9]), the “% CONTROL 10 DAT” value came to 0%, the “% CONTROL 14 DAT” value stood at 0% and the “% CONTROL 21 DAT” value worked out at 0%.

Regarding `CCCCC(CC)COC(=O)COc1ccc(Cl)cc1Cl` (centres unmarked) [2,4-D 2-ethylhexyl ester], the vapor pressure in data set [3] is ~4.8×10^−4 Pa.

`CCCCOCCOC(=O)COc1ccc(Cl)cc1Cl` [2,4-D butoxyethyl ester]: the vapor pressure in data set [3] is ~3.2×10^−4 Pa.

Regarding `CNC.O=C(O)COc1ccc(Cl)cc1Cl` [2,4-D dimethylamine salt], in data set [3], the vapor pressure is on record as ~1.3×10^−5 Pa.

Consider `CC(C)OC(=O)COc1ccc(Cl)cc1Cl` [2,4-D isopropyl ester], for which, in data set [3], the vapor pressure is ~1.9×10^1 Pa.

For `O=C(O)CN(CCN(CC(=O)O)CC(=O)O)CCN(CC(=O)O)CC(=O)O` [2.0% w/v DTPA, Diethylenetriaminepentaacetic acid], the “% CONTROL 7 DAT” value in data set [2] (setting [8]) came out at 0%. Besides, in data set [2] (setting [9]), the “% CONTROL 10 DAT” value is given as 3%, the “% CONTROL 14 DAT” value is 0% and the “% CONTROL 21 DAT” value came to 3%.

On to `COc1c(Cl)ccc(Cl)c1C(=O)O` [DICAMBA DGA, 3,6-dichloro-2-methoxybenzoic acid], for which the “% INJURY 7 DAT” value was determined as 25% in data set [4] (tomato in treated soil ring: duration, dicamba 0.50 lb a.e./A on bare field soil kept wet, 20 gpa, 25 psi); 33% in data set [4] (tomato inserted 1 DAT (in 1st DAT out 2nd DAT), 24 hours, dicamba 0.50 lb a.e./A); 13% in data set [4] (setting [12]); 20% in data set [4] (setting [13]); 25% in data set [4] (setting [14]); 17% in data set [4] (setting [15]). Moreover, the “% INJURY 10 DAT” value in data set [4] (setting [10]) is on record as 27%; in data set [4] (setting [11]), 37%; in data set [4] (setting [12]), 23%; in data set [4] (setting [13]) it was 22%; in data set [4] (setting [14]) it was 27%; in data set [4] (setting [15]), 18%. The “% INJURY 14 DAT” value in data set [4] (setting [10]) is on record as 30%; in data set [4] (setting [11]) it was 35%; in data set [4] (setting [12]) it was 20%; in data set [4] (setting [13]), 2%; in data set [4] (setting [14]), 15%; in data set [4] (setting [15]), 20%. Besides, the “% INJURY 21 DAT” value in data set [4] (setting [10]) was 27%; in data set [4] (setting [11]), 32%; in data set [4] (setting [12]), 15%; in data set [4] (setting [13]), 8%; in data set [4] (setting [14]) it was 25%; in data set [4] (setting [15]) it was 17%. In addition, the “% INJURY 28 DAT” value in data set [4] (setting [10]) worked out at 27%; in data set [4] (setting [11]), 25%; in data set [4] (setting [12]), 18%; in data set [4] (setting [13]), 7%; in data set [4] (setting [14]), 22%; in data set [4] (setting [15]), 7%.

As to `O=C(O)CNCP(=O)(O)O` [GLYPHOSATE, N-(phosphonomethyl)glycine], the “% CONTROL 7 DAT” value is given as 12% in data set [1], 39% in data set [2] (setting [6]) and 49% in data set [2] (setting [8]). The “% CONTROL 10 DAT” value in data set [1] amounted to 12%; in data set [2] (setting [7]), 37%; in data set [2] (setting [9]), 48%. Further, the “% CONTROL 14 DAT” value is given as 10% in data set [1], 40% in data set [2] (setting [7]) and 48% in data set [2] (setting [9]). The “% CONTROL 21 DAT” value was 6% in data set [1], 34% in data set [2] (setting [7]) and 45% in data set [2] (setting [9]). The pH in data set [5] was 4.7.
